Article PMC9866191, “Novel 9-Benzylaminoacridine Derivatives as Dual Inhibitors of Phosphodiesterase 5 and Topoisomerase II for the Treatment of Colon Cancer” (Molecules, 2023)

Experiments:
786-0 = assay: NCI-60 one-dose screen; format: cell-based; conditions: Homo sapiens; 786-0, Renal Cancer panel; single dose 10^−5 M; read-out: Growth inhibition %
A498 = assay: NCI-60 one-dose screen; format: cell-based; conditions: Homo sapiens; A498, Renal Cancer panel; single dose 10^−5 M; read-out: Growth inhibition %
A549/ATCC = assay: NCI-60 one-dose screen; format: cell-based; conditions: Homo sapiens, Non-small cell lung panel, single dose 10^−5 M, read-out: Growth inhibition %
BT-549 = assay: NCI-60 one-dose screen; format: cell-based; conditions: Homo sapiens; BT-549, Breast Cancer panel; single dose 10^−5 M; read-out: Growth inhibition %
DU-145 = assay: NCI-60 one-dose screen; format: cell-based; conditions: Homo sapiens; DU-145, Prostate Cancer panel; single dose 10^−5 M; read-out: Growth inhibition %
EKVX = assay: NCI-60 one-dose screen; format: cell-based; conditions: Homo sapiens, Non-small cell lung panel, single dose 10^−5 M, read-out: Growth inhibition %
HCT-116 [1] = assay: NCI-60 one-dose screen; format: cell-based; conditions: Homo sapiens, read-out: Growth inhibition %
HL-60(TB) = assay: NCI-60 one-dose screen; format: cell-based; conditions: Homo sapiens, Leukemia panel, single dose 10^−5 M, read-out: Growth inhibition %
HOP-62 = assay: NCI-60 one-dose screen; format: cell-based; conditions: Homo sapiens; HOP-62, Non-small cell lung panel; single dose 10^−5 M; read-out: Growth inhibition %
HS 578T = assay: NCI-60 one-dose screen; format: cell-based; conditions: Homo sapiens, Breast Cancer panel, single dose 10^−5 M, read-out: Growth inhibition %
HT29 = assay: NCI-60 one-dose screen; format: cell-based; conditions: Homo sapiens, HT-29; HT29, Colon Cancer panel; single dose 10^−5 M; read-out: Growth inhibition %
MALME-3M = assay: NCI-60 one-dose screen; format: cell-based; conditions: Homo sapiens, Melanoma panel, single dose 10^−5 M, read-out: Growth inhibition %
MCF7 = assay: NCI-60 one-dose screen; format: cell-based; conditions: Homo sapiens; MCF7, Breast Cancer panel; single dose 10^−5 M; read-out: Growth inhibition %
MDA-MB-231/ATCC = assay: NCI-60 one-dose screen; format: cell-based; conditions: Homo sapiens, Breast Cancer panel, single dose 10^−5 M, read-out: Growth inhibition %
MDA-MB-468 = assay: NCI-60 one-dose screen; format: cell-based; conditions: Homo sapiens; MDA-MB-468, Breast Cancer panel; single dose 10^−5 M; read-out: Growth inhibition %
MOLT-4 = assay: NCI-60 one-dose screen; format: cell-based; conditions: Homo sapiens; MOLT-4, Leukemia panel; single dose 10^−5 M; read-out: Growth inhibition %
NCI-H226 = assay: NCI-60 one-dose screen; format: cell-based; conditions: Homo sapiens; NCI-H226, Non-small cell lung panel; single dose 10^−5 M; read-out: Growth inhibition %
NCI-H23 = assay: NCI-60 one-dose screen; format: cell-based; conditions: Homo sapiens; NCI-H23, Non-small cell lung panel; single dose 10^−5 M; read-out: Growth inhibition %
NCI-H322M = assay: NCI-60 one-dose screen; format: cell-based; conditions: Homo sapiens, Non-small cell lung panel, single dose 10^−5 M, read-out: Growth inhibition %
NCI-H460 = assay: NCI-60 one-dose screen; format: cell-based; conditions: Homo sapiens; NCI-H460, Non-small cell lung panel; single dose 10^−5 M; read-out: Growth inhibition %
OVCAR-4 = assay: NCI-60 one-dose screen; format: cell-based; conditions: Homo sapiens; OVCAR-4, Ovarian Cancer panel; single dose 10^−5 M; read-out: Growth inhibition %
OVCAR-5 = assay: NCI-60 one-dose screen; format: cell-based; conditions: Homo sapiens; OVCAR-5, Ovarian Cancer panel; single dose 10^−5 M; read-out: Growth inhibition %
OVCAR-8 = assay: NCI-60 one-dose screen; format: cell-based; conditions: Homo sapiens; OVCAR-8, Ovarian Cancer panel; single dose 10^−5 M; read-out: Growth inhibition %
PC-3 = assay: NCI-60 one-dose screen; format: cell-based; conditions: Homo sapiens; PC-3, Prostate Cancer panel; single dose 10^−5 M; read-out: Growth inhibition %
RPMI-8226 = assay: NCI-60 one-dose screen; format: cell-based; conditions: Homo sapiens; RPMI-8226, Leukemia panel; single dose 10^−5 M; read-out: Growth inhibition %
RXF 393 = assay: NCI-60 one-dose screen; format: cell-based; conditions: Homo sapiens; RXF 393, Renal Cancer panel; single dose 10^−5 M; read-out: Growth inhibition %
SF-539 = assay: NCI-60 one-dose screen; format: cell-based; conditions: Homo sapiens; SF-539, CNS Cancer panel; single dose 10^−5 M; read-out: Growth inhibition %
SNB-19 = assay: NCI-60 one-dose screen; format: cell-based; conditions: Homo sapiens; SNB-19, CNS Cancer panel; single dose 10^−5 M; read-out: Growth inhibition %
TK-10 = assay: NCI-60 one-dose screen; format: cell-based; conditions: Homo sapiens; TK-10, Renal Cancer panel; single dose 10^−5 M; read-out: Growth inhibition %
UACC-62 = assay: NCI-60 one-dose screen; format: cell-based; conditions: Homo sapiens; UACC-62, Melanoma panel; single dose 10^−5 M; read-out: Growth inhibition %
UO-31 = assay: NCI-60 one-dose screen; format: cell-based; conditions: Homo sapiens; UO-31, Renal Cancer panel; single dose 10^−5 M; read-out: Growth inhibition %
HCT-116 [2] = assay: MTT cell proliferation assay, HCT-116; conditions: for % Inhibition at 10 µM: 72 h MTT, means ± SD
Description: (§1) In the MTT assay, 96-well culture plates were used. A total of 7 × 10^4 cells per well were seeded, and test materials were added to the cells at various concentrations [47, 48]. Human cancer and non-cancer cell lines were purchased commercially from the American Type Culture Collection (ATCC). After 72 h, the cytotoxicity of the compounds and paclitaxel (as a positive control group) was detected using the MTT method (thiazolyl blue tetrazolium bromide, Sigma-M2128). Absorbance values at 570 and 620 nm (OD = OD570–OD620) were measured using an ELISA reader (Anthos Labtec Instruments, Salzburg, Austria).

CCD-966SK = assay: MTT cell proliferation assay, CCD-966SK; conditions: CCD966SK skin fibroblast, 72 h MTT
Description: as §1

Structure (SMILES) | inhibition at 10 µM (786-0) | inhibition at 10 µM (A498) | inhibition at 10 µM (A549/ATCC) | inhibition at 10 µM (BT-549) | inhibition at 10 µM (DU-145) | inhibition at 10 µM (EKVX) | inhibition at 10 µM (HCT-116 [1]) | inhibition at 10 µM (HL-60(TB)) | inhibition at 10 µM (HOP-62) | inhibition at 10 µM (HS 578T) | inhibition at 10 µM (HT29) | inhibition at 10 µM (MALME-3M) | inhibition at 10 µM (MCF7) | inhibition at 10 µM (MDA-MB-231/ATCC) | inhibition at 10 µM (MDA-MB-468) | inhibition at 10 µM (MOLT-4) | inhibition at 10 µM (NCI-H226) | inhibition at 10 µM (NCI-H23) | inhibition at 10 µM (NCI-H322M) | inhibition at 10 µM (NCI-H460) | also measured
COc1ccc2nc3ccccc3c(NCc3ccc(F)cc3)c2c1 [Compound 28, (4-Fluorobenzyl)-(2-methoxyacridin-9-yl)-amine] | 93.2% | 108% | 80.3% | 65% | 83.5% | 77.6% | 91.1% | 135% | 71.8% | 73.9% | 99.8% | 105% | 128% | 83.3% | 124% | 99.5% | 70% | 86% | 77.4% | 94.5% | inhibition at 10 µM (OVCAR-4): 86.4%; inhibition at 10 µM (OVCAR-5): 82%; inhibition at 10 µM (OVCAR-8): 80.5%; inhibition at 10 µM (PC-3): 82.9%; inhibition at 10 µM (RPMI-8226): 143%; inhibition at 10 µM (RXF 393): 119%; inhibition at 10 µM (SF-539): 96.2%; inhibition at 10 µM (SNB-19): 82.3%; inhibition at 10 µM (TK-10): 62.2%; inhibition at 10 µM (UACC-62): 60.9%; inhibition at 10 µM (UO-31): 108%; % Inhibition at 10 µM (HCT-116 [2]): 75.53 ± 2.52%; IC50 (HCT-116 [2]; read-out: IC50 μM, 72 h MTT, means ± SD, three experiments): 2.51 ± 0.53 µM; % Inhibition at 10 µM (CCD-966SK): 60.66 ± 2.63%; IC50 (CCD-966SK; read-out: IC50 μM): 4.67 ± 0.07 µM
COc1ccc2nc3ccccc3c(NCc3ccc(Cl)cc3)c2c1 [Compound 29, (4-Chlorobenzyl)-(2-methoxyacridin-9-yl)-amine] | 177% | 91.4% | 76.4% | 49.8% | 78.5% | 66.2% | 93.2% | 164% | 57.6% | 64% | 102% | 182% | 156% | 75.7% | 131% | 108% | 51.2% | 71.7% | 75.4% | 87.5% | inhibition at 10 µM (OVCAR-4): 75.5%; inhibition at 10 µM (OVCAR-5): 73.5%; inhibition at 10 µM (OVCAR-8): 70.3%; inhibition at 10 µM (PC-3): 80.5%; inhibition at 10 µM (RPMI-8226): 145%; inhibition at 10 µM (RXF 393): 124%; inhibition at 10 µM (SF-539): 106%; inhibition at 10 µM (SNB-19): 73.6%; inhibition at 10 µM (TK-10): 47.1%; inhibition at 10 µM (UACC-62): 35.2%; inhibition at 10 µM (UO-31): 98.1%; % Inhibition at 10 µM (HCT-116 [2]): 28.83 ± 2.64%; % Inhibition at 10 µM (CCD-966SK): 2.90 ± 2.51%
